Read-outs that look alike come from different tables or passages of the source. Where a SMILES comes first, the peptide text is derived from it. Bridges are numbered along the chain shown (N, C = ends). [ ]: non-standard residue; d: D form.
Legend:
[1] = disulfide bond, water
P-selectin = molecular target: T1, P-selectin (Homo sapiens, UniProt P16109); experiment: Inhibition of human neutrophil adhesion to purified P-selectin immobilized on plastic wells; type: cell-based; details: inhibiting the binding of human neutrophils to P-selectin
T1 construct: P-selectin is isolated from human platelet lysates; from tissue; host or cells: human platelets (outdated platelet packs from a blood bank)
T1 sequence (P16109 42-830): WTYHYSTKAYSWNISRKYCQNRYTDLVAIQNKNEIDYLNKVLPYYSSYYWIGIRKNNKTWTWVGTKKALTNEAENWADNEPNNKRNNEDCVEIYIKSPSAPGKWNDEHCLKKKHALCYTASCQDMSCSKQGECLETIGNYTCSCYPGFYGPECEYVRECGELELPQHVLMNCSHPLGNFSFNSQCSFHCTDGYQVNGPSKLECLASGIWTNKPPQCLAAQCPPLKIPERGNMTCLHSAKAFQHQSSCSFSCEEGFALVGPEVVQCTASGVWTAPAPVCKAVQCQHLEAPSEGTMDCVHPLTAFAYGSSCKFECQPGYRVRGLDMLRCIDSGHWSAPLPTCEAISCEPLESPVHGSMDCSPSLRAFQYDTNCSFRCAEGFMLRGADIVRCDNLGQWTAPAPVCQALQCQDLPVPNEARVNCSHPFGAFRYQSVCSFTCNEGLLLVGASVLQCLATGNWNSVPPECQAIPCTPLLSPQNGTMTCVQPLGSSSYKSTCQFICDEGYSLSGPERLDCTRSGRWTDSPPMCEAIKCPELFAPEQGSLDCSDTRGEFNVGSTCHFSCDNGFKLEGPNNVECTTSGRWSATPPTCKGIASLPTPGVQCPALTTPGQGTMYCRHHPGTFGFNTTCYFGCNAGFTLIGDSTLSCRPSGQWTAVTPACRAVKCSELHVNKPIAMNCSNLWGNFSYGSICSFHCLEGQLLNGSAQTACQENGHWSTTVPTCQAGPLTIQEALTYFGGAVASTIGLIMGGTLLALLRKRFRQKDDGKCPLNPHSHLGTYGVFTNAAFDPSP
Procedure, shortened: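 Isolated human neutrophils (2×10^5 per well) in HBSS with Ca2+/Mg2+ and HSA added to wells coated overnight at 4° C with platelet-derived P-selectin (5 micrograms/mL), HSA-blocked; 20 min at 22° C. Nonadherent cells removed by inverted centrifugation at 150 g; adherent cells quantified by myeloperoxidase activity.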

Compound | IC50 (P-selectin) | further results
CC(C)C[C@@H]1NC(=O)CNC(=O)[C@H](NC(=O)[C@@H](CCCCN)NC(=O)[C@H](N)CCCNC(=N)N)CSSC[C@H](C(=O)N[C@H](Cc2c[nH]c3ccccc23)C(=O)N[C@@H](C(=O)N[C@H](Cc2c[nH]c3ccccc23)C(=O)N[C@@H](C(N)=O)C(C)C)[C@H](C)O)NC1=O [(69)] (H-[dR][dK][dC]GL[dC][dW][dT][dW][dV]-NH2; disulfide 3-6) | 146 µM | ring closure, yield of all isomers ([1]; from CC(C)C[C@H](NC(=O)CNC(=O)[C@@H](CS)NC(=O)[C@@H](CCCCN)NC(=O)[C@H](N)CCCNC(=N)N)C(=O)N[C@H](CS)C(=O)N[C@H](Cc1c[nH]c2ccccc12)C(=O)N[C@@H](C(=O)N[C@H](Cc1c[nH]c2ccccc12)C(=O)N[C@@H](C(N)=O)C(C)C)[C@H](C)O, DMSO, 0.252 mM, 25.0 °C, 96.0 h): 8.3%
CC(C)[C@@H](NC(=O)[C@@H](Cc1c[nH]c2ccccc12)NC(=O)[C@H](NC(=O)[C@@H](Cc1c[nH]c2ccccc12)NC(=O)[C@H]1CSSC[C@@H](NC(=O)[C@@H](CCCCN)NC(=O)[C@H](N)CCCNC(=N)N)C(=O)N[C@@H](CCCCN)C(=O)N[C@@H](Cc2ccccc2)C(=O)N1)[C@H](C)O)C(N)=O [(70)] (H-[dR][dK][dC]KF[dC][dW][dT][dW][dV]-NH2; disulfide 3-6) | 85.9 µM | ring closure, yield of all isomers ([1]; from CC(C)[C@@H](NC(=O)[C@@H](Cc1c[nH]c2ccccc12)NC(=O)[C@H](NC(=O)[C@@H](Cc1c[nH]c2ccccc12)NC(=O)[C@@H](CS)NC(=O)[C@H](Cc1ccccc1)NC(=O)[C@H](CCCCN)NC(=O)[C@@H](CS)NC(=O)[C@@H](CCCCN)NC(=O)[C@H](N)CCCNC(=N)N)[C@H](C)O)C(N)=O, DMSO, 0.708 mM, 48.0 h): 8.8%
CC(C)[C@@H](NC(=O)[C@@H](Cc1c[nH]c2ccccc12)NC(=O)[C@H](NC(=O)[C@@H](Cc1c[nH]c2ccccc12)NC(=O)[C@H]1CSSC[C@@H](NC(=O)[C@@H](CCCCN)NC(=O)[C@H](N)CCCNC(=N)N)C(=O)NCC(=O)N[C@@H](CCCCN)C(=O)N1)[C@H](C)O)C(N)=O [(71)] (H-[dR][dK][dC]GK[dC][dW][dT][dW][dV]-NH2; disulfide 3-6) | 2000 µM | ring closure, yield of all isomers ([1]; from CC(C)[C@@H](NC(=O)[C@@H](Cc1c[nH]c2ccccc12)NC(=O)[C@H](NC(=O)[C@@H](Cc1c[nH]c2ccccc12)NC(=O)[C@@H](CS)NC(=O)[C@H](CCCCN)NC(=O)CNC(=O)[C@@H](CS)NC(=O)[C@@H](CCCCN)NC(=O)[C@H](N)CCCNC(=N)N)[C@H](C)O)C(N)=O, DMSO, 0.181 mM, 72.0 h): 10.4%
CC(C)[C@@H](NC(=O)[C@@H](Cc1c[nH]c2ccccc12)NC(=O)[C@H](NC(=O)[C@H]1CCCN1C(=O)[C@H]1CSSC[C@@H](NC(=O)[C@@H](CCCCN)NC(=O)[C@H](N)CCCNC(=N)N)C(=O)NCC(=O)N[C@@H](Cc2ccccc2)C(=O)N1)[C@H](C)O)C(N)=O [(76)] (H-[dR][dK][dC]GF[dC][dP][dT][dW][dV]-NH2; disulfide 3-6) | 105 µM | ring closure, yield of all isomers ([1]; from CC(C)[C@@H](NC(=O)[C@@H](Cc1c[nH]c2ccccc12)NC(=O)[C@H](NC(=O)[C@H]1CCCN1C(=O)[C@@H](CS)NC(=O)[C@H](Cc1ccccc1)NC(=O)CNC(=O)[C@@H](CS)NC(=O)[C@@H](CCCCN)NC(=O)[C@H](N)CCCNC(=N)N)[C@H](C)O)C(N)=O, DMSO, 0.14 mM, 192.0 h): 20.6%
CC(C)[C@@H]1NC(=O)CNC(=O)[C@H](NC(=O)[C@@H](CCCCN)NC(=O)[C@H](N)CCCNC(=N)N)CSSC[C@H](C(=O)N[C@H](Cc2c[nH]c3ccccc23)C(=O)N[C@@H](C(=O)N[C@H](Cc2c[nH]c3ccccc23)C(=O)N[C@@H](C(N)=O)C(C)C)[C@H](C)O)NC1=O [(89)] (H-[dR][dK][dC]GV[dC][dW][dT][dW][dV]-NH2; disulfide 3-6) | 22.3 µM | ring closure, yield of all isomers ([1]; from CC(C)[C@H](NC(=O)CNC(=O)[C@@H](CS)NC(=O)[C@@H](CCCCN)NC(=O)[C@H](N)CCCNC(=N)N)C(=O)N[C@H](CS)C(=O)N[C@H](Cc1c[nH]c2ccccc12)C(=O)N[C@@H](C(=O)N[C@H](Cc1c[nH]c2ccccc12)C(=O)N[C@@H](C(N)=O)C(C)C)[C@H](C)O, DMSO, 0.387 mM, 25.0 °C, 72.0 h): 4%
CC[C@@H](C)[C@H]1NC(=O)[C@H](NC(=O)[C@@H](CCCCN)NC(=O)[C@H](N)CCCNC(=N)N)CSSC[C@H](C(=O)N[C@H](Cc2c[nH]c3ccccc23)C(=O)N[C@@H](C(=O)N[C@H](Cc2c[nH]c3ccccc23)C(=O)N[C@@H](C(N)=O)C(C)C)[C@H](C)O)NC(=O)[C@H]([C@@H](C)CC)NC1=O [(92)] (H-[dR][dK][dC][dI]I[dC][dW][dT][dW][dV]-NH2; disulfide 3-6) | 2.4 µM | ring closure, yield of all isomers ([1]; from CC[C@@H](C)[C@@H](NC(=O)[C@@H](CS)NC(=O)[C@@H](CCCCN)NC(=O)[C@H](N)CCCNC(=N)N)C(=O)N[C@H](C(=O)N[C@H](CS)C(=O)N[C@H](Cc1c[nH]c2ccccc12)C(=O)N[C@@H](C(=O)N[C@H](Cc1c[nH]c2ccccc12)C(=O)N[C@@H](C(N)=O)C(C)C)[C@H](C)O)[C@@H](C)CC, DMSO, 0.0765 mM, 24.0 h): 17.5%

Now from value to molecule, other results behind:

IC50 (P-selectin) | Compound | further results
7.7 µM | CC(C)[C@@H](NC(=O)[C@@H](Cc1ccccc1)NC(=O)[C@H](NC(=O)[C@@H](Cc1c[nH]c2ccccc12)NC(=O)[C@H]1CSSC[C@@H](NC(=O)[C@@H](CCCCN)NC(=O)[C@H](N)CCCNC(=N)N)C(=O)NCC(=O)N[C@@H](Cc2ccccc2)C(=O)N1)[C@H](C)O)C(N)=O [(79)] (H-[dR][dK][dC]GF[dC][dW][dT][dF][dV]-NH2; disulfide 3-6) | ring closure, yield of all isomers ([1]; from CC(C)[C@@H](NC(=O)[C@@H](Cc1ccccc1)NC(=O)[C@H](NC(=O)[C@@H](Cc1c[nH]c2ccccc12)NC(=O)[C@@H](CS)NC(=O)[C@H](Cc1ccccc1)NC(=O)CNC(=O)[C@@H](CS)NC(=O)[C@@H](CCCCN)NC(=O)[C@H](N)CCCNC(=N)N)[C@H](C)O)C(N)=O, DMSO, 0.101 mM): 15.2%
26.4 µM | CC(C)[C@@H](NC(=O)[C@@H](Cc1c[nH]c2ccccc12)NC(=O)[C@H](NC(=O)[C@@H](Cc1c[nH]c2ccccc12)NC(=O)[C@H]1CSSC[C@@H](NC(=O)[C@@H](CCCCN)NC(=O)[C@H](N)CCCNC(=N)N)C(=O)N2CCC[C@H]2C(=O)N[C@@H](Cc2ccccc2)C(=O)N1)[C@H](C)O)C(N)=O [(84)] (H-[dR][dK][dC]PF[dC][dW][dT][dW][dV]-NH2; disulfide 3-6) | ring closure, yield of all isomers ([1]; from CC(C)[C@@H](NC(=O)[C@@H](Cc1c[nH]c2ccccc12)NC(=O)[C@H](NC(=O)[C@@H](Cc1c[nH]c2ccccc12)NC(=O)[C@@H](CS)NC(=O)[C@H](Cc1ccccc1)NC(=O)[C@@H]1CCCN1C(=O)[C@@H](CS)NC(=O)[C@@H](CCCCN)NC(=O)[C@H](N)CCCNC(=N)N)[C@H](C)O)C(N)=O, air (copper wire, ammonium acetate pH 8.5), 0.756 mM, 25.0 °C): 12%
9.9 µM | CC(C)[C@@H](NC(=O)[C@@H](CCCNC(=N)N)NC(=O)[C@H](NC(=O)[C@@H](Cc1c[nH]c2ccccc12)NC(=O)[C@H]1CSSC[C@@H](NC(=O)[C@@H](CCCCN)NC(=O)[C@H](N)CCCNC(=N)N)C(=O)NCC(=O)N[C@@H](Cc2ccccc2)C(=O)N1)[C@H](C)O)C(N)=O [(90)] (H-[dR][dK][dC]GF[dC][dW][dT][dR][dV]-NH2; disulfide 3-6) | ring closure, yield of all isomers ([1]; from CC(C)[C@@H](NC(=O)[C@@H](CCCNC(=N)N)NC(=O)[C@H](NC(=O)[C@@H](Cc1c[nH]c2ccccc12)NC(=O)[C@@H](CS)NC(=O)[C@H](Cc1ccccc1)NC(=O)CNC(=O)[C@@H](CS)NC(=O)[C@@H](CCCCN)NC(=O)[C@H](N)CCCNC(=N)N)[C@H](C)O)C(N)=O, DMSO, 0.747 mM, 16.0 h): 18.5%
67.5 µM | CC[C@@H](C)[C@H]1NC(=O)[C@H](NC(=O)[C@@H](CCCCN)NC(=O)[C@H](N)CCCNC(=N)N)CSSC[C@H](C(=O)N[C@H](Cc2c[nH]c3ccccc23)C(=O)N[C@@H](C(=O)N[C@H](Cc2c[nH]c3ccccc23)C(=O)N[C@@H](C(N)=O)C(C)C)[C@H](C)O)NC(=O)[C@H](Cc2ccccc2)NC1=O [(93)] (H-[dR][dK][dC][dI]F[dC][dW][dT][dW][dV]-NH2; disulfide 3-6) | ring closure, yield of all isomers ([1]; from CC[C@@H](C)[C@@H](NC(=O)[C@@H](CS)NC(=O)[C@@H](CCCCN)NC(=O)[C@H](N)CCCNC(=N)N)C(=O)N[C@@H](Cc1ccccc1)C(=O)N[C@H](CS)C(=O)N[C@H](Cc1c[nH]c2ccccc12)C(=O)N[C@@H](C(=O)N[C@H](Cc1c[nH]c2ccccc12)C(=O)N[C@@H](C(N)=O)C(C)C)[C@H](C)O, DMSO, 0.671 mM, 16.0 h): 22.3%
